# Tests used:
# [1] = target: A549, epithelial (lung cancer); assay: Viability assay (MTT, Alamar Blue, hexosaminidase), 72 h; format: cell-based; conditions: A549 cells, read-out: EC50
# Summary of the method: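 A549 cells (5000/well, DMEM+10% FBS) were exposed for 72 h at 37° C. to compound, twofold serial dilutions from 100 μM, in triplicate. Viability was read consecutively by MTT (A570), Alamar Blue fluorescence and hexosaminidase activity, normalised to untreated cells. EC50 came from a variable-slope sigmoidal fit.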
# [2] = target: RAMOS, B lymphocyte (Burkitt's Lymphoma); assay: as above; format: cell-based; conditions: Ramos cells, read-out: EC50
# Summary of the method: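 Ramos cells seeded at 10000 cells/well in DMEM + 10% FBS; after 24 h, compounds added as 1:1 serial dilutions from 100 μM and incubated 72 h at 37 °C. Viability read sequentially by MTT (A570), Alamar Blue (535/590) and hexosaminidase activity, normalized to untreated cells; EC50 from variable-slope sigmoidal fit.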
# [3] = tested on: A549 cells; assay: Annexin V assay by flow cytometry; format: cell-based; conditions: A549 cells
# Procedure: Miltenyi Biotec Annexin V-FITC Kit was used. To detect apoptosis in early stage Phosphatidylserine in plasmatic membrane localization was measured, though the calcium dependent reaction with Annexine V. Annexin V molecules were labelled with different fluorophores (FITC) and analyzed by FACS. To detect apoptosis in late stage DNA-intercalating agents, such Propidium iodide (PI) were used.
# Cells were seeded at a density range of 150000-30000 cells/well in 12 wells plates, and incubated at 37° C. in the incubator under CO2 atmosphere. After 24 h, […] A549, HL-60 and MM.1S, at IC30 and/or IC80, with compounds IDP-S09 and IL-09, in cell lines HL-60 and MM.1S with compound IDP-S04 and in cell line A549 with compounds IDP-S02 and IDP-S03. Staurosporine and compound 100258-F4 (Sigma) were used as positive control and reference compound, respectively.
# [4] = tested on: MM1S cells; assay: Subcutaneous xenograft model, tumor volume and survival; format: in vivo, CB17-SCID immunosuppressed mice; conditions: 5 mg/kg i.p. each 12 h; for Tumor Volume: in mm³ (unit assumed)
# Procedure: CB17-SCID immunosuppressed mice (female) of 6-7 weeks old housed and handled in a pathogen-free zone. They were purchased from Janvier Labs. All experiments were carried out within the facilities of the University of Salamanca.
# Groups Studied: • Control: Medium (PBS) i.p. each 12 hours from Monday to Friday. • S03 i.p. each 12 hours from Monday to Friday (in PBS until end point) • S04 15 mg/kg i.p. each 12 hours from Monday to Friday (in PBS until end point) • S09 5 mg/kg i.p. each 12 hours from Monday to Friday (in PBS until end point)
# Subcutaneous xenoaraft model: The mice were shaved on the right flank and anesthetized by inhalation to decrease their mobility, were inoculated subcutaneously with 3×10^6 MM1S cells in 50 μl of RPMI-1640 medium and 50 μl of Corning® Matrigel® Basement Membrane Matrix. When the tumors became palpable (at 30 days), the mice were randomized into the different groups (5 mice in the control group and 4 in the remaining groups) according to the tumor volume. This was estimated by measurements with a caliper of the two tumor diameters and using the following formula of a spheroid: V=(a·b^2·π)/6, where a and b correspond to the longest and shortest diameter, respectively. Tumor volume was monitored three times per week.
# Survival evaluation: Mice were sacrificed when their tumor diameter reached 2 cm. The time to reach the endpoint criterion was estimated from the day of treatment start. The statistical differences were evaluated using Kaplan-Meier curves with the log rank test. Statistical analyzes were performed using the SPSS-17.0 program.
substance,measurement,setting,value
RQRRNXLKRAFAXLRDQ-OH [IDP-S03],EC50,[1],34 ± 6 µM
same,EC50,[2],~13 µM
same,"apoptosis induction (Annexin V by FACS), in words",[3],apoptosis induction is detected after 4 h at both IC30 and IC80
same,differences in survival with respect to the control,[4],9.5
same,tumor reduction with respect to the control,[4]; at the end-time (when the control is sacrificed),50%
same,% Tumor Volume,[4]; day of treatment 1 (= 100),100%
same,Tumor Volume,[4]; day of treatment 1,59.0
same,% Tumor Volume,"[4]; day of treatment 5, relative to day 1",193.2%
same,Tumor Volume,[4]; day of treatment 5,114.1
same,% Tumor Volume,"[4]; day of treatment 10, relative to day 1",443.9%
same,Tumor Volume,[4]; day of treatment 10,262.1
same,% Tumor Volume,"[4]; day of treatment 15, relative to day 1",661.6%
same,Tumor Volume,[4]; day of treatment 15,390.7
same,% Tumor Volume,"[4]; day of treatment 19, relative to day 1",969.5%
same,Tumor Volume,[4]; day of treatment 19,572.6
same,% Tumor Volume,"[4]; day of treatment 26, relative to day 1",2481.2%
same,Tumor Volume,[4]; day of treatment 26,1465.2
same,"Mean survival, Average",[4]; from treatment start until tumor diameter 2 cm,40.5 days
